Patent EP2666869A1 (priority 2012, dated 2013)
“And” between values parts separate entries of the source, which are not always exact repeats. Identical values can stand only once. Like-named read-outs stand apart in the source and are kept apart here.

Legend:
[1] = Sorafenib pharmacokinetic analysis (plasma concentrations, Bayesian estimation of AUC and Cav); assay type: in vivo, human; conditions: for AUC at 720 h: Cumulated sorafenib AUC, day 0 to day 30; for AUC tau at 720 h: day 30
Description: (§1) Adverse events were reported and graded according to the National Cancer Institute Common Terminology Criteria (NCI-CTCAE) on days 15 and 30 after treatment initiation. Diarrhea and HFSR were graded according to the NCI-CTCAE 3.0 version, while hypertension was retrospectively graded according to the 4.0 version. In case of grade 4 hematological toxicity or grade 3 or 4 non-hematological toxicity, treatment was discontinued until side effects recovered to grade 1, or returned to baseline. Subsequent dose reductions were left at the discretion of the treating physician.
This Bayesian estimator is based on a 1-compartment model with saturated absorption, first-order intestinal loss and linear elimination.
For descriptive statistics, qualitative variables were expressed in numbers and percentages and quantitative ones in medians [inter-quartile intervals]. Glomerular filtration rate (GFR) and lean body mass (LBM) were estimated using the Modification of the Diet in Renal Disease (MDRD) formula and the Green's formula, respectively. […] Then, the relationships between the dose-standardized AUC and other variables were tested using two-sample Wilcoxon tests or Kruskal-Wallis tests for qualitative variables with two modalities or more than two modalities, respectively, and by Spearman rank correlation coefficient tests for quantitative ones. The following variables were tested: age, gender, ECOG status, weight, body mass index (BMI), LBM, primary tumor site, polymorphisms of CYP3A5 (rs776746), UGT1A9 (rsl78868320, rs6714486, rs72551330), ABCB1 (rs2231137, rs1045642), ABCG2 (rs2231137, rs2231142, rs2622604), alanine aminotransferase (ALT), aspartate aminotransferase (AST), alkaline phosphatase (ALP), gamma-glutamyl transpeptidase (GGT), bilirubin, albumin, C-Reactive Protein, creatinine and MDRD GFR. A stepwise multiple linear regression was then performed with variables significant with p < 0.10 in the first step included in the regression and variables significant with p < 0.05 kept in the final model. […] The cumulated AUC between day 0 and day 30 was calculated as the sum of two areas, (0-15 days) and (15-30 days) which were estimated using the trapezoidal rule. The area was multiplied by 24 to express the result in mg/L.h. […] On day 0, Cav0 was fixed at 0 mg/L.

[2] = Toxicity assessment (NCI-CTCAE grading) and risk factor analysis in the first month of sorafenib treatment; assay type: in vivo, human
Description: as §1
For descriptive statistics, qualitative variables were expressed in numbers and percentages and quantitative ones in medians [inter-quartile intervals]. Glomerular filtration rate (GFR) and lean body mass (LBM) were estimated using the Modification of the Diet in Renal Disease (MDRD) formula and the Green's formula, respectively. […] Then, the relationships between the dose-standardized AUC and other variables were tested using two-sample Wilcoxon tests or Kruskal-Wallis tests for qualitative variables with two modalities or more than two modalities, respectively, and by Spearman rank correlation coefficient tests for quantitative ones. The following variables were tested: age, gender, ECOG status, weight, body mass index (BMI), LBM, primary tumor site, polymorphisms of CYP3A5 (rs776746), UGT1A9 (rsl78868320, rs6714486, rs72551330), ABCB1 (rs2231137, rs1045642), ABCG2 (rs2231137, rs2231142, rs2622604), alanine aminotransferase (ALT), aspartate aminotransferase (AST), alkaline phosphatase (ALP), gamma-glutamyl transpeptidase (GGT), bilirubin, albumin, C-Reactive Protein, creatinine and MDRD GFR. A stepwise multiple linear regression was then performed with variables significant with p < 0.10 in the first step included in the regression and variables significant with p < 0.05 kept in the final model. For the analysis of sorafenib-induced toxicities in the first month of treatment, we used dichotomous end points expressed as any toxicity ≥ grade 3 (yes or no), or grade ≥ 2 HFSR (yes or no), or grade ≥ 2 diarrhea (yes or no), or grade ≥ 2 hypertension (yes or no). The cumulated AUC between day 0 and day 30 was calculated as the sum of two areas, (0-15 days) and (15-30 days) which were estimated using the trapezoidal rule. The area was multiplied by 24 to express the result in mg/L.h. […] On day 0, Cav0 was fixed at 0 mg/L.
The univariate analysis of toxicity risk factors was carried out using two sample Wilcoxon tests for quantitative variables and Chi square or Fisher exact tests for qualitative ones. Fisher exact tests were performed as soon as at least one expected value was lower than 5. […] The multivariate analysis was performed by a stepwise logistic regression. Variables with p-values < 0.10 in the univariate analysis were included in the regression and variables with a Wald test p-value < 0.05 were kept in the final model. All the tests were two-sided, and they were considered significant when p-values were < 0.05. The receiver operating characteristic (ROC) curve was constructed to examine the value of an AUCcum threshold predicting a toxicity of grade ≥ 3 in the first month of treatment. The diagnostic accuracy values of sensitivity and specificity were determined, as well as the positive predictive value (PPV) and the negative predictive value (NPV). Computations were performed using the SAS V9 statistical package (SAS institute, Cary, NC).

[3] = AUCcum threshold value of 3,161 mg/L.h, toxicity of grade ≥ 3

CNC(=O)c1cc(Oc2ccc(NC(=O)Nc3ccc(Cl)c(C(F)(F)F)c3)cc2)ccn1 [sorafenib]
Spearman's coefficient (rho) ([1]; dose-normalized AUC day 15 versus Creatinine (µmol/L)): -0.26
Spearman's coefficient (rho) ([1]; dose-normalized AUC day 15 versus LBM (kg)): -0.28
AUC at 720 h ([1]; human, plasma, patients with Hand Foot Skin Reaction ≥ grade 2, median [interquartile range]): 3310 µg·h/mL
AUC at 720 h ([1]; human, plasma, patients with any toxicity ≥ grade 3, median [interquartile range]): 3500 µg·h/mL
AUC at 720 h ([1]; human, plasma, patients without Hand Foot Skin Reaction ≥ grade 2, median [interquartile range]): 2250 µg·h/mL
AUC at 720 h ([1]; human, plasma, patients without any toxicity ≥ grade 3, median [interquartile range]): 2250 µg·h/mL
AUC tau at 360 h ([1]; human, plasma, day 15, females, read-out: median absolute AUC): 78.3 µg·h/mL
AUC tau at 360 h ([1]; human, plasma, day 15, males, read-out: median absolute AUC): 52.4 µg·h/mL
AUC tau at 720 h ([1]; human, plasma, females, read-out: median absolute AUC): 82.2 µg·h/mL
AUC tau at 720 h ([1]; human, plasma, males, read-out: median absolute AUC): 55.2 µg·h/mL
AUC tau at 12 h ([1]; human, plasma, median absolute sorafenib AUC, day 15, all patients, AUC 0 to 12 hours, median [interquartile range]): 62 µg·h/mL
AUC tau at 720 h ([1]; human, plasma, median absolute sorafenib AUC, all patients, median [interquartile range]): 61 µg·h/mL
NPV [2, 3]: 63.3%
PPV [2, 3]: 75.8%
area under the ROC curve for the AUCcum threshold ([2]; CI 95%, 61-78%): 69%
Any toxicity ≥ grade 3: No ([2]; CYP3A5 6986 A>G AA (*1/*1)): 0 (0) n (%)
Any toxicity ≥ grade 3: Yes ([2]; CYP3A5 6986 A>G AA (*1/*1)): 4 (100) n (%)
Any toxicity ≥ grade 3: No ([2]; CYP3A5 6986 A>G AG (*1/*3)): 6 (67) n (%)
Any toxicity ≥ grade 3: Yes ([2]; CYP3A5 6986 A>G AG (*1/*3)): 3 (33) n (%)
Any toxicity ≥ grade 3: No ([2]; CYP3A5 6986 A>G GG (*3/*3)): 24 (63) n (%)
Any toxicity ≥ grade 3: Yes ([2]; CYP3A5 6986 A>G GG (*3/*3)): 14 (37) n (%)
Any toxicity ≥ grade 3: No ([2]; Female): 5 (33.3) n (%)
Any toxicity ≥ grade 3: Yes ([2]; Female): 10 (66.7) n (%)
Hand Foot Skin Reaction ≥ grade 2: No ([2]; Female): 5 (33.3) n (%)
Hand Foot Skin Reaction ≥ grade 2: Yes ([2]; Female): 10 (66.7) n (%)
Any toxicity ≥ grade 3: No ([2]; Male): 25 (67.6) n (%)
Any toxicity ≥ grade 3: Yes ([2]; Male): 12 (32.4) n (%)
Hand Foot Skin Reaction ≥ grade 2: No ([2]; Male): 25 (52.0) n (%)
Hand Foot Skin Reaction ≥ grade 2: Yes ([2]; Male): 12 (48.0) n (%)
Occurrence during first month of treatment: Diarrhea ([2]; No): 37 (69) n (%)
Occurrence during first month of treatment: Hypertension ([2]; No): 28 (52) n (%)
Occurrence during first month of treatment: Hand-foot skin reaction ([2]; No, 54 patients): 17 (31) n (%)
AUCcum threshold predicting a toxicity of grade ≥ 3 ([2]; ROC curve, first month of treatment): 3,161 mg/L.h
Diarrhea ≥ grade 2: No ([2]; UGT1A9 -275 T>A m/m): 0 (0) n (%)
Diarrhea ≥ grade 2: Yes ([2]; UGT1A9 -275 T>A m/m): 0 (0) n (%)
Diarrhea ≥ grade 2: No ([2]; UGT1A9 -275 T>A wt/m): 2 (50) n (%)
Diarrhea ≥ grade 2: Yes ([2]; UGT1A9 -275 T>A wt/m): 2 (50) n (%)
Diarrhea ≥ grade 2: No ([2]; UGT1A9 -275 T>A wt/wt): 43 (93) n (%)
Diarrhea ≥ grade 2: Yes ([2]; UGT1A9 -275 T>A wt/wt): 3 (7) n (%)
Diarrhea ≥ grade 2: No ([2]; UGT1A9 -2152 C>T m/m): 0 (0) n (%)
Diarrhea ≥ grade 2: Yes ([2]; UGT1A9 -2152 C>T m/m): 0 (0) n (%)
Diarrhea ≥ grade 2: No ([2]; UGT1A9 -2152 C>T wt/m): 2 (50) n (%)
Diarrhea ≥ grade 2: Yes ([2]; UGT1A9 -2152 C>T wt/m): 2 (50) n (%)
Diarrhea ≥ grade 2: No ([2]; UGT1A9 -2152 C>T wt/wt): 42 (93) n (%)
Diarrhea ≥ grade 2: Yes ([2]; UGT1A9 -2152 C>T wt/wt): 3 (7) n (%)
Occurrence during first month of treatment: Diarrhea ([2]; Yes): 17 (31) n (%)
Occurrence during first month of treatment: Hypertension ([2]; Yes): 25 (46) n (%)
Occurrence during first month of treatment: Hand-foot skin reaction ([2]; Yes, 54 patients): 37 (69) n (%)
Occurrence during first month of treatment: Diarrhea ([2]; grade < 2): 12 n (%)
Occurrence during first month of treatment: Hand-foot skin reaction ([2]; grade < 2): 15 n (%)
Occurrence during first month of treatment: Hypertension ([2]; grade < 2): 5 n (%)
Occurrence during first month of treatment: Diarrhea ([2]; grade ≥ 2 (grade 2-3)): 5 (9%) n (%) and 5 n (%)
Occurrence during first month of treatment: Hand-foot skin reaction ([2]; grade ≥ 2 (grade 2-3)): 22 (41%) n (%) and 22 n (%)
Occurrence during first month of treatment: Hypertension ([2]; grade ≥ 2 (grade 2-3)): 20 (38%) n (%) and 20 n (%)
grade 3 or 4 toxicity: diarrhea ([2]; on days 15 or 30, 5% of the 22 patients with grade 3 or 4 toxicity): 1 n
grade 3 or 4 toxicity: hypertension ([2]; on days 15 or 30, 27% of the 22 patients with grade 3 or 4 toxicity): 6 n
grade 3 or 4 toxicity: HFSR ([2]; on days 15 or 30, 68% of the 22 patients with grade 3 or 4 toxicity): 15 n
patients who experienced grade 3 or 4 toxicity ([2]; on days 15 or 30, twenty-two of 54 patients): 41%
patients who required dose reductions because of toxic effects ([2]; over the study period): 9 n
patients who required interruption of treatment because of toxic effects ([2]; over the study period): 10 n
patients who required dose reductions or interruption of treatment because of toxic effects ([2]; over the study period, nineteen patients): 35%
toxic death in relation with sorafenib ([2]; study period): no toxic death
